Test system: messenger RNAs coding for the protein CD59
Assay: cDNA array of CD59 mRNA on standard human dermal fibroblasts
Type: cell-based
Settings: for Comparision of the Control Population with the Population Exposed to the Extract (in %) / Fibroblasts Exposed to the Extract (RE): 15 micrograms/ml; for Comparision of the Control Population with the Population Exposed to the Extract (in %): control = 100; for Fibroblasts Exposed to the Extract (RE): control fibroblasts 6.1 RE
Experimental: The methodology used is that recommended by Clontech (Palo Alto, USA). […] The total RNA solutions were treated with DNAse I in order to remove any trace of contaminant DNA, in accordance with the supplier's recommendations. The quality of the RNA was then verified on agarose gel and the RNA solutions were adjusted to 1 μg/ml.
The next step was the purification of the messenger RNAs (mRNA) by hybridization of the poly(A) ends of the mRNAs using biotinylated oligo(dT) primers and selective capture on streptavidin beads, in accordance with the Atlaspure protocol (Clontech). ^33P-labeled DNA probes were produced by reverse transcription of the niRNAs bound to poly(dT) beads, using a pool of specific primers of the immobilized sequences on membranes (arrays), in the presence of (α^33P)-dATP. This step used the reagents and the protocol recommended by Clontech. The labeled probes were purified by chromatography on an exclusion column, and the quality and equivalence of the labeled probes was evaluated by liquid scintillation counting.
cDNA array membranes were pretreated and then the cDNAs immobilized on each membrane were hybridized (68° C., overnight) with the corresponding labeled probes. The filters were subsequently washed and placed in individual plastic bags for analysis. Analysis took place by direct quantification of the radioactivity of the spots using a Cyclone phosphoimager (Packard). The results were expressed in relative expression units (RE, radioactivity of the spot corresponding to each gene, corrected for the background noise and for the differences in intensity of labeling of the probes).
The study was carried out on standard human fibroblasts. Dermal fibroblasts were cultivated in DMEM (Life Technology, ref. 21969035) containing L-glutamine (2 mM, Life Technology, ref. 25030024), 50 IU/ml penicillin and 50 μg/ml streptomycin (Life Technology, ref. 15070063) and 1% foetal calf serum (v/v, Life Technology, ref. 10106151).
A fraction of a root extract of Panax notoginseng (San Qi) containing only the saponins was tested for its activity in accordance with the protocol described in the foregoing example by the technique of cDNA array on fibroblasts. The two principal saponins from the extract were also tested.
All the products were tested at a final concentration of 15 micrograms/ml

SMILES	effect on expression of messenger RNAs coding for the protein CD59 (in words)	Comparision of the Control Population with the Population Exposed to the Extract (in %)	Fibroblasts Exposed to the Extract (RE)
CC(C)=CCC[C@](C)(O[C@@H]1O[C@H](CO[C@@H]2O[C@H](CO)[C@@H](O)[C@H](O)[C@H]2O)[C@@H](O)[C@H](O)[C@H]1O)[C@H]1CC[C@]2(C)[C@@H]1[C@H](O)C[C@@H]1[C@@]3(C)CC[C@H](O[C@@H]4O[C@H](CO)[C@@H](O)[C@H](O)[C@H]4O[C@@H]4O[C@H](CO)[C@@H](O)[C@H](O)[C@H]4O)C(C)(C)[C@@H]3CC[C@]12C [Rb1, Rb1 ginsenoside]	significantly modify	277%	13.8 RE
CC(C)=CCC[C@](C)(O[C@@H]1O[C@H](CO)[C@@H](O)[C@H](O)[C@H]1O)[C@H]1CC[C@]2(C)[C@@H]1[C@H](O)C[C@@H]1[C@@]3(C)CC[C@H](O)C(C)(C)[C@@H]3[C@@H](O[C@@H]3O[C@H](CO)[C@@H](O)[C@H](O)[C@H]3O)C[C@]12C [Rg1, Rg1 ginsenoside]	significantly modify	277%	16.8 RE

— US20040101503A1, “Use of protectin activator to enhance the skin's resistance, composition comprising such activators and selection method” (SOCIETE L'OREAL S.A., priority 2002, published 2004)
